In patent US20150044296A1, “COMBINATION THERAPY TO IMPROVE JOINT, TENDON, AND LIGAMENT HEALING” (priority 2012, published 2015):

System: trephine defect (bony healing)
Assay: Bony healing of trephine defect after systemic treatment
Format: in vivo, mice
Settings: systemic administration

`CC[C@H](C)[C@H](NC(=O)[C@H](CCC(=O)O)NC(=O)[C@H](CO)NC(=O)[C@@H](NC(=O)[C@@H](N)CO)C(C)C)C(=O)N[C@@H](CCC(N)=O)C(=O)N[C@@H](CC(C)C)C(=O)N[C@@H](CCSC)C(=O)N[C@@H](Cc1cnc[nH]1)C(=O)N[C@@H](CC(N)=O)C(=O)N[C@@H](CC(C)C)C(=O)NCC(=O)N[C@@H](CCCCN)C(=O)N[C@@H](Cc1cnc[nH]1)C(=O)N[C@@H](CC(C)C)C(=O)N[C@@H](CC(N)=O)C(=O)N[C@@H](CO)C(=O)N[C@@H](CCSC)C(=O)N[C@@H](CCC(=O)O)C(=O)N[C@@H](CCCN=C(N)N)C(=O)N[C@H](C(=O)N[C@@H](CCC(=O)O)C(=O)N[C@@H](Cc1c[nH]c2ccccc12)C(=O)N[C@@H](CC(C)C)C(=O)N[C@@H](CCCN=C(N)N)C(=O)N[C@@H](CCCCN)C(=O)N[C@@H](CCCCN)C(=O)N[C@@H](CC(C)C)C(=O)N[C@@H](CCC(N)=O)C(=O)N[C@@H](CC(=O)O)C(=O)N[C@H](C(=O)N[C@@H](Cc1cnc[nH]1)C(=O)N[C@@H](CC(N)=O)C(=O)N[C@@H](Cc1ccccc1)C(=O)O)C(C)C)C(C)C` [PTH] was tested, and the “bony ingrowth / bony regeneration” value was 56%.

For `c1cc(CN2CCCNCCNCCCNCC2)ccc1CN1CCCNCCNCCCNCC1` [AMD3100], the “bony ingrowth / bony regeneration” value was 59.7%.
